The results in this text go back to PMC12636295 (bioRxiv, 2025).

The target in the experiment is T1, SCP2 (human sterol carrier protein 2) (Homo sapiens, UniProt P22307).
T1 sequence (P22307 425-547): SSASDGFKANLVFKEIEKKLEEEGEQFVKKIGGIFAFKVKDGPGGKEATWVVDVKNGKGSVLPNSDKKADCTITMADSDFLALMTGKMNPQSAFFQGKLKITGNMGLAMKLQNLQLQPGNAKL
The experiment in a line: NBD-SA fluorescence displacement titration. The class given is binding.

For orientation: Ki means the dissociation constant of the complex between target and ligand, obtained from inhibition or displacement. A lower Ki goes with tighter binding. The compound `O=C(O)C(F)(F)C(F)(F)C(F)(F)C(F)(F)C(F)(F)C(F)(F)C(F)(F)C(F)(F)C(F)(F)C(F)(F)C(F)(F)C(F)(F)C(F)(F)C(F)(F)C(F)(F)F` [PFHxDA] came in with a Ki of 8.4 ± 0.6 µM.
